49 compounds from PubChem BioAssay AID488867 (Broad Institute, 2010) can be followed below.

Molecules are shown by their SMILES. The source made the active and inactive calls.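 Rule for the calls: active = a rising curve with AC50 no higher than ten times the top valid dose of that compound; inconclusive = flat curve between 30 and 70 percent, or failed fit; inactive = the rest.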

The test in a line: INS-1E mitochondrial potential loss inhibitors – cell-based, JC-1 fluorescence, dry powder, set 2, dose response (AID 488867). The following applies: INS-1E cytokine-induced apoptosis, JC-1 mitochondrial potential, 48 h.

In the case of `COc1ccc(S(=O)(=O)N(C)C[C@@H]2Oc3c(NS(=O)(=O)c4cn(C)cn4)cccc3C(=O)N([C@@H](C)CO)C[C@H]2C)cc1`, the protection from cytokine-induced depolarization (at 26 µM (top of the series)) is -9.04% (inactive).

As for `C[C@@H]1CN([C@@H](C)CO)C(=O)c2cccc(NC(=O)Nc3cccc4ccccc34)c2O[C@H]1CN(C)C(=O)NC1CCCCC1`, the protection from cytokine-induced depolarization (at 26 µM (top of the series)) was -6.42% (inactive). The same measure, in the same setting: under `COc1ccc(S(=O)(=O)N(C)C[C@@H]2Oc3c(NC(=O)Nc4c(C)noc4C)cccc3C(=O)N([C@@H](C)CO)C[C@H]2C)cc1` stands 2.03% (inactive). On the same count and under the same terms, next, `C[C@@H]1CN([C@@H](C)CO)C(=O)c2cccc(NC(=O)Nc3cccc4ccccc34)c2O[C@H]1CN(C)CC1CC1`: 10.5% (inactive). The same measure, in the same setting: under `C[C@@H]1CN([C@@H](C)CO)C(=O)c2cccc(NC(=O)Nc3ccc(F)cc3)c2O[C@H]1CN(C)S(=O)(=O)c1ccc(Cl)cc1` stands 8.02% (inactive); under `C[C@@H]1CN([C@@H](C)CO)C(=O)c2cccc(NC(=O)Nc3cccc4ccccc34)c2O[C@H]1CN(C)S(C)(=O)=O`, 2.48% (inactive). For the compound `Cc1noc(C)c1NC(=O)N(C)C[C@@H]1Oc2c(NC(=O)Nc3cccc4ccccc34)cccc2C(=O)N([C@@H](C)CO)C[C@H]1C`, the protection from cytokine-induced depolarization (at 26 µM (top of the series)) is 12.1% (inactive). Still for that read-out and setting: under `COc1ccc(S(=O)(=O)N(C)C[C@@H]2Oc3c(NC(=O)Nc4ccc(C(F)(F)F)cc4)cccc3C(=O)N([C@@H](C)CO)C[C@H]2C)cc1` stands -7.36% (inactive); under `C[C@@H]1CN([C@@H](C)CO)C(=O)c2cccc(NC(=O)Nc3ccccc3)c2O[C@H]1CN(C)S(=O)(=O)c1ccc(Cl)cc1`, 17.7% (inactive). Same read-out and setting: under `Cc1ccc(S(=O)(=O)N(C)C[C@@H]2Oc3c(NC(=O)Nc4ccc(F)cc4)cccc3C(=O)N([C@@H](C)CO)C[C@H]2C)cc1` stands 10.4% (inactive).

Turning to `COc1ccc(S(=O)(=O)N(C)C[C@@H]2Oc3c(NC(=O)Nc4cccc5ccccc45)cccc3C(=O)N(C(C)C)C[C@H]2C)cc1`, the protection from cytokine-induced depolarization (at 26 µM (top of the series)) is 36.6% (inactive). Take `COc1ccc(S(=O)(=O)N(C)C[C@@H]2Oc3c(cccc3N(C)C)C(=O)N([C@@H](C)CO)C[C@H]2C)cc1`: the protection from cytokine-induced depolarization (at 23.5 µM (top of the series)) is -4.35% (inactive). Turning to `COc1ccc(S(=O)(=O)N(C)C[C@@H]2Oc3c(NC(=O)c4ccncc4)cccc3C(=O)N([C@@H](C)CO)C[C@H]2C)cc1`, where the note is “at 26 µM (top of the series)”, the protection from cytokine-induced depolarization is -1.06% (inactive). On the same count and under the same terms, under `C[C@@H]1CN([C@@H](C)CO)C(=O)c2cccc(NC(=O)Nc3cccc4ccccc34)c2O[C@H]1CN(C)S(=O)(=O)c1cccs1` stands 3.88% (inactive); under `C[C@@H]1CN([C@@H](C)CO)C(=O)c2cccc(NC(=O)Nc3cccc4ccccc34)c2O[C@H]1CN(C)S(=O)(=O)c1ccc2c(c1)oc(=O)n2C`, -5.34% (inactive). Take `C[C@@H]1CN([C@@H](C)CO)C(=O)c2cccc(NC(=O)Nc3cccc4ccccc34)c2O[C@H]1CN(C)S(=O)(=O)c1ccc2c(c1)OCCO2`: the protection from cytokine-induced depolarization (at 12 µM (top of the series)) was 29.7% (inactive) and the protection from cytokine-induced depolarization (at 26 µM (top of the series)) was 26.8% (inactive). With `COc1ccc(S(=O)(=O)N(C)C[C@@H]2Oc3c(NS(C)(=O)=O)cccc3C(=O)N([C@@H](C)CO)C[C@H]2C)cc1`, the protection from cytokine-induced depolarization (at 26 µM (top of the series)) is -7.47% (inactive). Regarding `COc1ccc(S(=O)(=O)N(C)C[C@@H]2Oc3c(NC(=O)Nc4cccc5ccccc45)cccc3C(=O)N([C@@H](C)CO)C[C@H]2C)cc1Cl`, for the setting “at 26 µM (top of the series)”, the protection from cytokine-induced depolarization was -12% (inactive). Same read-out and setting: next, `COc1ccc(S(=O)(=O)N(C)C[C@@H]2Oc3c(NC(=O)Nc4cccc5ccccc45)cccc3C(=O)N([C@@H](C)CO)C[C@H]2C)cc1C`: -8.34% (inactive). On the same count and under the same terms, next, `C[C@@H]1CN([C@H](C)CO)C(=O)c2cccc(NC(=O)Nc3ccccc3)c2O[C@H]1CN(C)S(=O)(=O)c1ccc(Cl)cc1`: 15.6% (inactive).

For `COc1ccc(S(=O)(=O)N(C)C[C@@H]2Oc3c(NS(=O)(=O)c4ccc(C)cc4)cccc3C(=O)N([C@@H](C)CO)C[C@H]2C)cc1`, for the setting “at 23.5 µM (top of the series)”, the protection from cytokine-induced depolarization is -2.55% (inactive). Still for that read-out and setting: next, `Cc1ccc(S(=O)(=O)N(C)C[C@@H]2Oc3c(NC(=O)Nc4cccc5ccccc45)cccc3C(=O)N([C@H](C)CO)C[C@H]2C)cc1`: 7.94% (inactive). Consider `COc1ccc(S(=O)(=O)N(C)C[C@@H]2Oc3c(NC(=O)c4cccc5ccccc45)cccc3C(=O)N([C@@H](C)CO)C[C@H]2C)cc1`, for which the protection from cytokine-induced depolarization (at 26 µM (top of the series)) is 4.73% (inactive). The same measure, in the same setting: next, `C[C@@H]1CN([C@@H](C)CO)C(=O)c2cccc(NC(=O)Nc3cccc4ccccc34)c2O[C@H]1CN(C)S(=O)(=O)c1ccc2c(c1)OCO2`: 32.4% (inactive). Still for that read-out and setting: next, `COc1ccc(S(=O)(=O)N(C)C[C@@H]2Oc3c(NC(=O)Nc4ccc(F)cc4)cccc3C(=O)N([C@H](C)CO)C[C@H]2C)cc1`: 10.8% (inactive); `COc1ccc(NC(=O)N(C)C[C@@H]2Oc3c(NC(=O)Nc4cccc5ccccc45)cccc3C(=O)N([C@@H](C)CO)C[C@H]2C)cc1`: 0.86% (inactive); `COc1ccc(S(=O)(=O)N(C)C[C@@H]2Oc3c(NC(=O)c4nc5ccccc5s4)cccc3C(=O)N([C@@H](C)CO)C[C@H]2C)cc1`: -8.58% (inactive). Same read-out and setting: under `C[C@@H]1CN([C@@H](C)CO)C(=O)c2cccc(NC(=O)Nc3cccc4ccccc34)c2O[C@H]1CN(C)S(=O)(=O)c1cccc(F)c1` stands -9.88% (inactive).

`C[C@@H]1CN([C@@H](C)CO)C(=O)c2cccc(NC(=O)Nc3cccc4ccccc34)c2O[C@H]1CN(C)C(=O)Nc1ccc(C(F)(F)F)cc1`: where the note is “at 23.5 µM (top of the series)”, the protection from cytokine-induced depolarization is 7.29% (inactive). Consider `COc1ccc(S(=O)(=O)N(C)C[C@@H]2Oc3c(NC(=O)Nc4cccc5ccccc45)cccc3C(=O)N([C@@H](C)CO)C[C@@H]2C)cc1`, for which the protection from cytokine-induced depolarization (at 26 µM (top of the series)) was -0.543% (inactive).

With `COc1ccc(S(=O)(=O)Nc2cccc3c2O[C@@H](CN(C)S(=O)(=O)c2ccc(OC)cc2)[C@H](C)CN([C@@H](C)CO)C3=O)cc1`, the protection from cytokine-induced depolarization (at 26 µM (top of the series)) was 3.9% (inactive). As to `COc1ccc(S(=O)(=O)N(C)C[C@@H]2Oc3c(NC(=O)Nc4cccc5ccccc45)cccc3C(=O)N([C@H](C)CO)C[C@@H]2C)cc1`, under “at 26 µM (top of the series)”, the protection from cytokine-induced depolarization is -2.94% (inactive). On the same count and under the same terms, under `COc1ccccc1S(=O)(=O)N(C)C[C@@H]1Oc2c(NC(=O)Nc3cccc4ccccc34)cccc2C(=O)N([C@@H](C)CO)C[C@H]1C` stands -3.43% (inactive); under `COc1ccc(S(=O)(=O)N(C)C[C@@H]2Oc3c(NC(=O)c4cnccn4)cccc3C(=O)N([C@@H](C)CO)C[C@H]2C)cc1`, -9.35% (inactive). The same measure, in the same setting: under `COc1ccc(S(=O)(=O)N(C)C[C@@H]2Oc3c(NC(=O)Nc4cccc5ccccc45)cccc3C(=O)N([C@@H](C)CO)C[C@H]2C)cc1F` stands -3.4% (inactive); under `COc1ccc(S(=O)(=O)N(C)C[C@H]2Oc3c(NC(=O)Nc4cccc5ccccc45)cccc3C(=O)N([C@H](C)CO)C[C@H]2C)cc1`, -8.55% (inactive). As for `COc1ccc(S(=O)(=O)N(C)C[C@@H]2Oc3c(NC(=O)c4cc(C)nn4C)cccc3C(=O)N([C@@H](C)CO)C[C@H]2C)cc1`, the protection from cytokine-induced depolarization (at 26 µM (top of the series)) is 1.8% (inactive). Same read-out and setting: under `C[C@@H]1CN([C@H](C)CO)C(=O)c2cccc(NC(=O)Nc3cccc4ccccc34)c2O[C@H]1CN(C)S(=O)(=O)c1ccc(Cl)cc1` stands 4.01% (inactive).

Consider `C[C@@H]1CN([C@@H](C)CO)C(=O)c2cccc(NC(=O)Nc3cccc4ccccc34)c2O[C@H]1CN(C)S(=O)(=O)c1ccc(OC(F)(F)F)cc1`, for which the protection from cytokine-induced depolarization (at 26 µM (top of the series)) is -2.77% (inactive). On the same count and under the same terms, next, `C[C@@H]1CN([C@@H](C)CO)C(=O)c2cccc(NC(=O)Nc3ccccc3)c2O[C@H]1CN(C)S(=O)(=O)c1ccc(F)cc1`: 7.91% (inactive). Still for that read-out and setting: next, `COc1cccc(S(=O)(=O)N(C)C[C@@H]2Oc3c(NC(=O)Nc4cccc5ccccc45)cccc3C(=O)N([C@@H](C)CO)C[C@H]2C)c1`: 5.29% (inactive); `C[C@@H]1CN([C@@H](C)CO)C(=O)c2cccc(NC(=O)Nc3cccc4ccccc34)c2O[C@H]1CN(C)S(=O)(=O)c1ccccc1F`: -16.5% (inactive). Still for that read-out and setting: next, `C[C@@H]1CN([C@@H](C)CO)C(=O)c2cccc(NC(=O)Nc3cccc4ccccc34)c2O[C@H]1CN(C)C(=O)Nc1ccc(F)cc1`: 9.03% (inactive). Take `COc1ccc(S(=O)(=O)N(C)C[C@@H]2Oc3c(NC(=O)NC4CCCCC4)cccc3C(=O)N([C@@H](C)CO)C[C@H]2C)cc1`: under “at 26 µM (top of the series)”, the protection from cytokine-induced depolarization was 7.46% (inactive). Same read-out and setting: next, `COc1ccc(S(=O)(=O)N(C)C[C@@H]2Oc3c(NS(=O)(=O)c4ccc(Cl)cc4)cccc3C(=O)N([C@@H](C)CO)C[C@H]2C)cc1`: -6.3% (inactive); `C[C@@H]1CN([C@@H](C)CO)C(=O)c2cccc(NC(=O)Nc3cccc4ccccc34)c2O[C@H]1CN(C)C(=O)Nc1ccc2c(c1)OCO2`: -3.61% (inactive); `Cc1ccc(S(=O)(=O)N(C)C[C@@H]2Oc3c(NC(=O)Nc4ccccc4)cccc3C(=O)N([C@H](C)CO)C[C@H]2C)cc1`: 11.2% (inactive). The same measure, in the same setting: under `C[C@H]1CN([C@@H](C)CO)C(=O)c2cccc(NC(=O)NC3CCCCC3)c2O[C@@H]1CN(C)S(C)(=O)=O` stands -1.29% (inactive).

Regarding `COc1ccc(S(=O)(=O)N(C)C[C@@H]2Oc3c(NC(=O)c4ccc(-c5nccs5)cc4)cccc3C(=O)N([C@@H](C)CO)C[C@H]2C)cc1`, for the setting “at 26 µM (top of the series)”, the protection from cytokine-induced depolarization is -3.02% (inactive).
